Measurements as given in paper PMC8621857, “Structural Insights into the Azole Resistance of the Candida albicans Darlington Strain Using Saccharomyces cerevisiae Lanosterol 14α-Demethylase as a Surrogate” (Journal of Fungi, 2021).
Read-outs that look alike come from different tables or passages of the source. Starred links: 1 amine or outer side, 2 acyl side, 3 side chain; linkers in the order of their positions; H or OH if unused. Positions of bridges follow the written chain, without caps; N, C: chain ends. Non-standard residues stand in square brackets, D forms with d. Residues, ends and D or L forms follow the SMILES beside them. *: point of attachment. hTyr(3S-OH,4S-OH,3'-OSO3H) = N[C@H](C(=O)O)[C@H](O)[C@@H](O)c1ccc(O)c(OS(=O)(=O)O)c1; Orn(4R-OH,5R-OH) = O=C([C@H](C[C@@H](O)[C@@H](O)N[*:3])N[*:1])[*:2]; Pro(3S-OH,4S-Me) = C[C@H]1CN[C@H](C(=O)O)[C@H]1O; X1 = CCCCCOc1ccc(-c2cc(-c3ccc(C(=O)*)cc3)no2)cc1; Gln(3R-OH) = NC(=O)C[C@@H](O)[C@H](N)C(=O)O; Hyp = O=C(O)[C@@H]1C[C@@H](O)CN1

Tests used:
[1] = system: Phakopspora pachyrhizi SDM Y131F I475T isolates; set-up: method as in PMID 23589453; settings: isolates from soybean plants in Brazil; cited from earlier work
[2] = system: S. cerevisiae strain AD3Δ ScErg11 Y140H I471T expressing ScLDM6×His Y140H I471T; experiment: Broth microdilution drug susceptibility assay (MIC80), strain AD3Δ ScErg11 Y140H I471T; assay type: cell-based, Saccharomyces cerevisiae
Experimental: (§1) The native ScERG11 gene in yeast cells containing mutant ScERG11-6×His constructs in the PDR5 locus was disrupted by homologous recombination with a cassette encoding the His1 selection marker and sequences homologous with the regions bordering the endogenous ScERG11 ORF to create strains AD3Δ ScErg11 Y140H, AD3Δ ScErg11 I471T and AD3Δ ScErg11Y140H I471T [43]. Transformants were selected on SD-His agar plates incubated at 30 °C for 48–72 h. Genomic DNA was extracted, and DNA sequencing as above was used to confirm deletion of the native ERG11. Strain AD3Δ ScErg11 (denoted as AD3Δ), which overexpresses wild-type ScLDM6×His from the PDR5 locus and has the native ScERG11 gene disrupted, was used as a control strain [43].
(§2) Azole susceptibility was measured as the mean drug concentration required to inhibit 80% of yeast growth (MIC80) compared to a non-drug control, using a standard broth microdilution assay. Serial dilutions of short- (FLC and VCZ), medium- (VT-1161), and long-tailed (ITC and PCZ) azole drugs, and the control drugs micafungin (MCF) and amphotericin B (AMB), were prepared in a 96-well microtiter plate in complete synthetic media lacking uracil, buffered to pH 6.8 [34]. Control and test cells were seeded at an optical density of 600 nm (OD600) of 0.005 (~1.5 × 10^4 colony forming units). After incubation for 48 h at 30 °C with constant agitation (200 rpm), the OD600 nm of each well was measured using a Synergy 2 multi-mode plate reader (BioTek Instruments, Winooski, VT, USA). The experiment was repeated three times (a total of nine measurements for the response of each strain to each drug). GraphPad Prism 5.0 software was used for statistical analysis, using a one-way analysis of variance with a Bonferroni post-hoc test. The statistical significance of comparisons was accepted when p < 0.05.

[3] = system: S. cerevisiae strain AD3Δ ScErg11 Y140H expressing ScLDM6×His Y140H; experiment: Broth microdilution drug susceptibility assay (MIC80), strain AD3Δ ScErg11 Y140H; assay type: cell-based, Saccharomyces cerevisiae; settings: for MIC80: Saccharomyces cerevisiae, 48 h, 30 °C, pH 6.8, mean (± SEM), n = 3
Experimental: as §1, §2

[4] = system: S. cerevisiae strain AD3Δ ScErg11 I471T expressing ScLDM6×His I471T; experiment: Broth microdilution drug susceptibility assay (MIC80), strain AD3Δ ScErg11 I471T; assay type: cell-based, Saccharomyces cerevisiae; settings: for MIC80: Saccharomyces cerevisiae, 48 h, 30 °C, pH 6.8, mean (± SEM), n = 3; for increased susceptibility compared with AD3Δ: strain AD3Δ ScErg11 I471T, not corrected for expression
Experimental: as §1, §2

[5] = system: S. cerevisiae strain AD2Δ (native wild-type ScLDM); experiment: Broth microdilution drug susceptibility assay (MIC80), host strain AD2Δ; assay type: cell-based; settings: Saccharomyces cerevisiae, 48 h, pH 6.8
Experimental: Yeast strains used in this study (Supplementary Table S1) were prepared using the AD2Δ strain of S. cerevisiae as a host, using an established protocol. AD2Δ is hypersensitive to xenobiotics due to the deletion of seven major ABC transporters, including those responsible for the efflux of azole drugs. It is also deleted of the PDR3 transcriptional regulator, but contains the gain-of-function Pdr1-3 transcriptional regulator mutation that leads to constitutive overexpression from the PDR5 locus.
as §2

[6] = system: S. cerevisiae test and control strains (AD2Δ, AD3Δ and mutants); experiment: Broth microdilution MIC80, comparison across the various cell types tested; assay type: cell-based, Saccharomyces cerevisiae; settings: p > 0.05
Experimental: as §2

[7] = system: C. albicans Darlington strain; experiment: Agarose disk diffusion assay, Darlington strain; assay type: cell-based, Candida albicans; settings: for agarose diffusion susceptibility: no efflux pump inhibitor
Experimental: (§3) Agarose diffusion assays were carried out as described previously using the Darlington strain of C. albicans (Pfizer Ltd., Sandwich, UK) and the control C. albicans database strain SC5314, which is not resistant to azoles. The Cdr1p-specific inhibitor RC21v3 and the CaMdr1p-specific inhibitor MCC1189 (MicroCombiChem, Wiesbaden, Germany), included in the assay medium at 6 µM, were used to investigate the contribution of efflux pumps to azole resistance in the Darlington strain [49, 50, 51].

[8] = system: S. cerevisiae strain AD3Δ ScErg11 (AD3Δ) overexpressing wild-type ScLDM6×His; experiment: Broth microdilution drug susceptibility assay (MIC80), strain AD3Δ ScErg11; assay type: cell-based, Saccharomyces cerevisiae; settings: for MIC80: Saccharomyces cerevisiae, 48 h, pH 6.8; for effect of ScLDM6×His overexpression on susceptibility to control antifungals: strain AD3Δ vs AD2Δ
Experimental: as §1, §2

[9] = system: C. albicans strain SC5314; experiment: Agarose disk diffusion assay, control strain SC5314; assay type: cell-based, Candida albicans
Experimental: as §3

[10] = molecular target: wild-type and Y140F/H mutants of ScLDM6×His; set-up: method as in earlier work; settings: no significant differences, ref 5 (supplement; Sagatova et al. 2016); cited from earlier work
[11] = Saccharomyces cerevisiae, strain Y140H + I471T, 48 h, 30 °C, pH 6.8, mean (± SEM), n = 3
[12] = strain AD2Δ, 30 °C, mean (± SEM), n = 3, read-out: MIC80
[13] = strain AD3Δ, 30 °C, mean (± SEM), n = 3, read-out: MIC80
[14] = strain Y140H+I471T, relative expression 0.41
[15] = strain Y140H, relative expression 0.74
[16] = strain I471T, relative expression 0.51

Row | SMILES | MIC80 [2, 11] [µM] | MIC80 ([3]; strain Y140H) [µM] | MIC80 ([4]; strain I471T) [µM] | increased susceptibility compared with AD3Δ [4] | MIC80 [5, 12] [µM] | differences between MIC80s for the various cell types tested [6] | agarose diffusion susceptibility [7] | MIC80 [8, 13] [µM] | effect of ScLDM6×His overexpression on susceptibility to control antifungals [8] | also measured
1 | Fc1ccc([C@]2(Cn3cncn3)O[C@H]2c2ccccc2Cl)cc1 (racemic) [epoxiconazole] |  |  |  |  |  |  |  |  |  | resistance conferred by the double mutation Y131F I475T [1]: ~ 100 fold
2 | C[C@@H]1[C@H](O)[C@@H](C)/C=C/C=C/C=C/C=C/C=C/C=C/C=C/[C@H](O[C@@H]2O[C@H](C)[C@@H](O)[C@H](N)[C@@H]2O)C[C@@H]2O[C@](O)(C[C@@H](O)C[C@@H](O)[C@H](O)CC[C@@H](O)C[C@@H](O)CC(=O)O[C@H]1C)C[C@H](O)[C@H]2C(=O)O [AMB, amphotericin B] | 2.14 | 2.19 | 2.26 | not | 2.18 | no statistically significant differences | mild resistance | 2.34 | did not modify susceptibility | 
3 | OC(Cn1cncn1)(Cn1cncn1)c1ccc(F)cc1F [FLC, fluconazole] | 11.5 | 7.4 | 1.88 | 1.9 fold |  |  | resistant |  |  | effect of Cdr1p inhibitor RC21v3 on azole susceptibility [9]: did not alter the susceptibility; effect of Mdr1 inhibitor MCC1189 on azole susceptibility [9]: did not alter the susceptibility; agarose diffusion susceptibility ([9]; SC5314, no efflux pump inhibitor): susceptible; MIC80 higher than AD3Δ ScErg11 cells ([2]; strain AD3Δ ScErg11 Y140H I471T, not corrected for expression, p < 0.001): approximately 3 fold; MIC80 higher than cells overexpressing ScLDM6×His Y140H ([2]; strain AD3Δ ScErg11 Y140H I471T, p < 0.001): 1.5 fold; MIC80/Relative Amount of ScLDM6×His [2, 14]: 28.0 µM; fold-resistance based on the relative amount of recombinant enzyme compared with strain AD3Δ [2, 14]: 7.7 ×; resistance conferred, relative amount of recombinant ScLDM6×His taken into account ([3]; ScLDM6×His Y140H vs AD3Δ): 2.8 fold; MIC80 higher than strain AD3Δ ScErg11 ([3]; strain AD3Δ ScErg11 Y140H vs AD3Δ, not corrected for expression, p < 0.001): ~ 2 fold; MIC80/Relative Amount of ScLDM6×His [3, 15]: 10 µM; fold-resistance based on the relative amount of recombinant enzyme compared with strain AD3Δ [3, 15]: 2.8 ×; MIC80/Relative Amount of ScLDM6×His [4, 16]: 3.69 µM; fold-resistance based on the relative amount of recombinant enzyme compared with strain AD3Δ [4, 16]: 1.0 ×; MIC80 [5]: 1.33 µM; effect of Mdr1 inhibitor MCC1189 on azole susceptibility ([7]; MCC1189 at 6 µM in the assay medium): did not alter the susceptibility; effect of Cdr1p inhibitor RC21v3 on azole susceptibility ([7]; RC21v3 at 6 µM in the assay medium): did not alter the susceptibility; MIC80/Relative Amount of ScLDM6×His [8]: 3.64 µM; MIC80 [8]: 3.64 µM; Kd [10]: ~500 nM
4 | CCCCCOc1ccc(-c2cc(-c3ccc(C(=O)N[C@H]4C[C@@H](O)[C@@H](O)NC(=O)[C@@H]5[C@@H](O)[C@@H](C)CN5C(=O)[C@H]([C@H](O)CC(N)=O)NC(=O)[C@H]([C@H](O)[C@@H](O)c5ccc(O)c(OS(=O)(=O)O)c5)NC(=O)[C@@H]5C[C@@H](O)CN5C(=O)[C@H]([C@@H](C)O)NC4=O)cc3)no2)cc1 [MCF, micafungin] (X1-[Orn(4R-OH,5R-OH)]T[Hyp][hTyr(3S-OH,4S-OH,3'-OSO3H)][Gln(3R-OH)][Pro(3S-OH,4S-Me)]; lactam 1-C) |  | 0.166 | 0.164 | not | 0.174 | no statistically significant differences |  | 0.146 | did not modify susceptibility | MIC [2, 11]: 0.162 µM
